Measurements as given in patent US20160291027A1, “METHODS FOR […] ABILITY OF A Z[…] COMPOUND TO TREAT CANCER” (Eisai R&D Management Co., Ltd., priority 2007, published 2016).

Legend:
[1] = test system: panel of 31 melanoma cell lines; assay: MTS cell viability assay in a panel of 31 melanoma cell lines; format: cell-based; conditions: for % of Less Sensitive cell lines / Less sensitive cell lines (number/total) / Sensitive cell lines (number/total): Cut-Off IC50 < 100 nmol/L; for Number of sensitive cell lines: sensitivity defined as IC50<500 nmol/L
Method: Cell viability was also assessed in a panel of 31 melanoma cell lines carrying different mutations in BRAF following treatment with a zearalenone analog compound, Compound 106. All assays were performed in a 96 well format. Cell viability was assessed after four days following treatment. Cell viability was assessed with a MTS Assay (CellTiter96®AqueousOne Solution Cell Proliferation Assay, Promega) in a panel of cell lines carrying various BRAF mutations to determine the effect of BRAF genotype on drug sensitivity. The mutational status of these cell lines and IC50 in nmol/L is depicted in FIG. 3C.
Cell viability was assessed in a panel of melanoma cell lines carrying different mutations in BRAF, and PTEN following treatment with the MEK inhibitor, Compound 106. The panel of 31 melanoma cell lines was tested with eight concentrations of Compound 106 ranging from 10 μmol/L to 0.0003 μmol/L of Compound 106. (The panel of cell lines also carries mutations in one or more additional genes associated with cancer).
All assays were performed in a 96 well format. Cell viability was assessed after four days following treatment. Cell viability was assessed with a MTS Assay (CellTiter96®AqueousOne Solution Cell Proliferation Assay, Promega) to determine the effect of genotype on drug sensitivity.

AU-565 = assay: Western blotting of response markers; format: cell-based; conditions: resistant cell line AU-565; 24 hours; concentration dependent
Method: (§1) In order to identify markers that could serve as response markers for determining whether a cancer in a subject is sensitive to treatment with a zearalenone analog compound, phospho-ERK, total ERK protein, phospho-pRB, total pRB, and Cyclin D1 protein levels in a cell line sensitive to Compound 106 (e.g., SK-MEL-28) and cell lines resistant to Compound 106 (e.g., AU-565) were examined by Western blotting. 2×10^6 cancer cells (SK-MEL-28 and AU-565) were plated into a 100 mm dish and incubated for two days. Test compound, e.g., Compound 106, was then added to each dish for 24 hours at a concentration ranging from […] to […]. Culture medium was added to the cells as a control. SK-MEL-28 and AU-565 cell lysate proteins were subjected to SDS-PAGE under reducing condition and immunoblotted with an antibody against phospho-ERK1/2 (catalog #9101, Cell Signaling Technology®, Danvers, Mass.), phospho-pRB (catalog #9307, Cell Signaling Technology®, Danvers, Mass.), or Cyclin D1 (catalog #sc-8396, Santa Cruz, Calif.). ERK1 (catalog #sc-93, Santa Cruz, Calif.) or pRb (catalog #sc-102, Santa Cruz, Calif.) antibody was used for the detection of the total amount of protein.

SK-MEL-28 = assay: Western blotting of response markers; format: cell-based; conditions: sensitive cell line SK-MEL-28, 24 hours
Method: as §1

[2] = test system: DBTRG-05MG human glioblastoma xenografts; assay: Subcutaneous DBTRG-05MG glioblastoma xenograft model; format: in vivo, mice
Method: The purpose of this study was to investigate anticancer activity of Compound 106 in a human DBTRG-05MG glioblastoma xenograft model. DBTRG-05MG human glioblastoma cancer cells, which carry the BRAF (V600E) mutation, were grown in monolayer cultures in ATCC-recommended growth media at 37° C. in a 5% CO2 humidified incubator. Cells were expanded in T225 flasks for the in vivo study. On the day of injection, growth medium was removed, flasks were washed with PBS, and cells were collected by trypsinization. The cells were washed and collected by centrifugation, and resuspended in ice-cold PBS.
Female athymic NU/NU mice (6 week old, Charles River Laboratories (Wilmington, Mass.)) were inoculated subcutaneously (s.c.) with 5×10^6 DBTRG-05MG human glioblastoma cancer cells. Those animals that developed tumors of approximately 150 mm^3 were selected and randomized into five groups.
The study consisted of a vehicle-treated group and four drug-treated groups of 8 mice per group for a total of 40 mice on the first day of treatment. All treatments were initiated on day 21. Compound 106 was administered intravenously (i.v.) on a Q4D×3 (days 21, 25, and 29) dosing schedule at dosages of 5, 10, 20 and 40 mg/kg with a volume of injection of 0.1 mL per 10 g body weight (Q4D×3=every four days for a total of three injections). The control group was treated with vehicle alone (20% Captisol in water; Captisol® (Sulfobutyl Ether Beta Cycolodextrin, Sodium Salt; Cydex, Inc., KS)).
General health of the mice was monitored and mortality was recorded daily. Tumor dimensions and animal body weights were recorded twice a week starting on the first day of treatment. The s.c. tumor volumes were measured and animals were weighed twice weekly starting with the first day of treatment. Tumor volume was determined by caliper measurement (mm) and using the following formula: […]
The study was terminated 60 days after cancer cell transplantation. […]

[3] = test system: BRAF-mutated xenograft models (breast, colon, and melanoma cell lines); assay: Other xenograft models, BRAF-mutated; format: in vivo, mice; conditions: 40 mg/kg i.v. QD×5 for 2 weeks
Method: Additionally, one, five, and seven out of eight animals in the groups treated with Compound 106 at doses of 10, 20, or 40 mg/kg, respectively, were tumor-free at the end of the study on day 59. […] Compound 106 was also tested in other xenograft models, in which BRAF-mutated cells, including breast, colon, and melanoma cell lines, or wildtype cells, including pancreatic cell lines, were transplanted subcutaneously into female nude mice. Compound 106 or a vehicle control was administered intravenously.

[4] = mutant BRAF gene (20 cell lines)
[5] = total cell lines (31 cell lines)
[6] = wild-type BRAF gene (11 cell lines)

Structure (SMILES): CCNc1cc(O)c2c(c1)/C=C/C[C@H](O)[C@H](O)C(=O)/C=C\[C@@H](C)[C@H](C)OC2=O [Compound 106]
- % of Less Sensitive cell lines [1, 4]: (25%)
- Less sensitive cell lines (number/total) [1, 4]: 5/20
- Sensitive cell lines (number/total) [1, 4]: 15/20
- % of Less Sensitive cell lines [1, 5]: (42%)
- Less sensitive cell lines (number/total) [1, 5]: 13/31
- % of Less Sensitive cell lines [1, 6]: (73%)
- Less sensitive cell lines (number/total) [1, 6]: 8/11
- Sensitive cell lines (number/total) [1, 6]: 3/11
- % of Cell lines with IC50 < 100 nmol/L ([1]; PTEN gene Mutant (8 cell lines), Total): (50%)
- % of Cell lines with IC50 < 100 nmol/L ([1]; PTEN gene Mutant, BRAF Mutant): (50%)
- % of Cell lines with IC50 < 100 nmol/L ([1]; PTEN gene Mutant, BRAF Wild Type): (0%)
- % of Cell lines with IC50 < 100 nmol/L ([1]; PTEN gene Wild Type (23 cell lines), Total): (65%)
- % of Cell lines with IC50 < 100 nmol/L ([1]; PTEN gene Wild Type, BRAF Mutant): (86%)
- % of Cell lines with IC50 < 100 nmol/L ([1]; PTEN gene Wild Type, BRAF Wild Type): (33%)
- % of Cell lines with IC50 < 100 nmol/L ([1]; p-AKT expression High (G2-G3), BRAF Mutant): (67%)
- % of Cell lines with IC50 < 100 nmol/L ([1]; p-AKT expression High (G2-G3), BRAF Wild Type): (0%)
- % of Cell lines with IC50 < 100 nmol/L ([1]; p-AKT expression High (G2-G3), Total): (57%)
- % of Cell lines with IC50 < 100 nmol/L ([1]; p-AKT expression Low (G0-G1), BRAF Mutant): (79%)
- % of Cell lines with IC50 < 100 nmol/L ([1]; p-AKT expression Low (G0-G1), BRAF Wild Type): (30%)
- % of Cell lines with IC50 < 100 nmol/L ([1]; p-AKT expression Low (G0-G1), Total): (58%)
- Number of sensitive cell lines ([1]; of the 8 cell lines with mutant PTEN or loss of PTEN): 3 cell lines
- Number of sensitive cell lines ([1]; of the 23 cell lines with wild-type PTEN): 12 cell lines
- protein levels of phospho-ERK (AU-565): inhibited
- Protein levels of p27 (SK-MEL-28): increased
- phospho-pRB protein (SK-MEL-28): decrease
- protein levels of Cyclin D1 (SK-MEL-28): decreased
- protein levels of phospho-ERK (SK-MEL-28; concentration dependent): inhibited
- Tumor-free animals on day 60 ([2]; 5 mg/kg i.v. Q4D×3): One out of eight
- Tumor-free animals on day 60 ([2]; 20 mg/kg i.v. Q4D×3): One out of eight
- Anticancer activity (tumor volume vs. control group) ([2]; 5, 10, 20, and 40 mg/kg i.v. Q4D×3): statistically significant anticancer activity
- tumor regression ([3]; strongest effect of the range): about 73%
- tumor growth inhibition ([3]; weakest effect of the range: tumor stasis (but not regression) during treatment): > 80%
